Results as given in PubChem BioAssay AID248 (DTP/NCI, 2004).
“And” between values parts separate entries of the source, which are not always exact repeats. Equal entries are not always repeated. Toxic doses and inconclusive results are not listed. No stated cut-off is given here; in the data, active means T/C of 150% or more; inactive means T/C below 125%.

Tested on: L1210 leukemia ip in BDF1 mice, survival T/C
Assay: NCI In Vivo Anticancer Drug Screen. Data for tumor model L1210 Leukemia (intraperitoneal) in B6D2F1 (BDF1) mice
Settings: endpoint: mean survival time, higher = longer survival
Outline: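 Ratio derived from survival: compound-dosed mice over vehicle-dosed mice, all bearing a transplantable tumor.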

[1] = dose: 100.0 mg/kg/injection, schedule: Q04DX003 (ip), vehicle: saline
[2] = dose: 50.0 mg/kg/injection, schedule: Q01DX001 (ip), vehicle: saline
[3] = dose: 100.0 mg/kg/injection, schedule: Q01DX001 (ip), vehicle: saline
[4] = dose: 200.0 mg/kg/injection, schedule: Q01DX001 (ip), vehicle: saline
[5] = dose: 400.0 mg/kg/injection, schedule: Q01DX001 (ip), vehicle: saline
[6] = dose: 50.0 mg/kg/injection, schedule: Q01DX001 (ip), vehicle: carboxymethylcellulose (CMC)
[7] = dose: 100.0 mg/kg/injection, schedule: Q04DX003 (ip), vehicle: Klucel (hydroxypropylcellulose) (HPC)
[8] = dose: 100.0 mg/kg/injection, schedule: Q04DX003 (ip), vehicle: saline with Tween-80
[9] = dose: 200.0 mg/kg/injection, schedule: Q04DX003 (ip), vehicle: saline with Tween-80
[10] = dose: 400.0 mg/kg/injection, schedule: Q04DX003 (ip), vehicle: saline with Tween-80
[11] = dose: 25.0 mg/kg/injection, schedule: Q01DX009 (ip), vehicle: saline
[12] = dose: 100.0 mg/kg/injection, schedule: Q04DX002 (ip), vehicle: saline with Tween-80

Measured: T/C

O=C(NCCCl)NC1CCC(O)CC1 (centres undefined)
inactive: [1] 107 % of control | dose: 200.0 mg/kg/injection, schedule: Q04DX003 (ip), vehicle: saline 100 % of control | dose: 400.0 mg/kg/injection, schedule: Q04DX003 (ip), vehicle: saline 100 % of control

O=C1NC(=O)C(c2ccc(C(=O)O)cc2)N1 (centres undefined)
inactive: [2] 107 % of control | [3] 105 % of control | [4] 100 % of control | [5] 96 % of control

N#CC1C(=O)NC(=O)C(C#N)C12CCN(Cc1ccccc1)CC2 (centres undefined)
inactive: dose: 100.0 mg/kg/injection, schedule: Q01DX001 (ip), vehicle: Klucel (hydroxypropylcellulose) (HPC) 102 % of control | dose: 200.0 mg/kg/injection, schedule: Q01DX001 (ip), vehicle: Klucel (hydroxypropylcellulose) (HPC) 97 % of control | dose: 400.0 mg/kg/injection, schedule: Q01DX001 (ip), vehicle: Klucel (hydroxypropylcellulose) (HPC) 103 % of control

CN(C)C1CCCC/C=C\C(=O)NC1 (centres undefined)
inactive: dose: 25.0 mg/kg/injection, schedule: Q04DX002 (ip), vehicle: saline 99 % of control | dose: 50.0 mg/kg/injection, schedule: Q04DX002 (ip), vehicle: saline 101 % of control | dose: 75.0 mg/kg/injection, schedule: Q01DX001 (ip), vehicle: saline 109 % of control | dose: 100.0 mg/kg/injection, schedule: Q04DX002 (ip), vehicle: saline 99 % of control

ClC(Cl)(Cl)C1OCCOCCO1
inactive: dose: 100.0 mg/kg/injection, schedule: Q04DX002 (ip), vehicle: Klucel (hydroxypropylcellulose) (HPC) 93 % of control | dose: 200.0 mg/kg/injection, schedule: Q04DX002 (ip), vehicle: Klucel (hydroxypropylcellulose) (HPC) 97 % of control | dose: 400.0 mg/kg/injection, schedule: Q04DX002 (ip), vehicle: Klucel (hydroxypropylcellulose) (HPC) 107 % of control

Cc1c(C#N)sc2ccccc12
inactive: [3] 96 % of control | [4] 96 % of control | [5] 96 % of control

C1CCC(CCC(CCCC2CCCC2)CCCC2CCCC2)CC1
inactive: dose: 100.0 mg/kg/injection, schedule: Q01DX001 (ip), vehicle: saline with Tween-80 97 % of control | dose: 200.0 mg/kg/injection, schedule: Q01DX001 (ip), vehicle: saline with Tween-80 92 % of control | dose: 400.0 mg/kg/injection, schedule: Q01DX001 (ip), vehicle: saline with Tween-80 101 % of control

NNC(=O)c1cccs1
inactive: dose: 25.0 mg/kg/injection, schedule: Q01DX009 (ip), vehicle: Klucel (hydroxypropylcellulose) (HPC) 100 % of control | dose: 25.0 mg/kg/injection, schedule: Q04DX003 (ip), vehicle: Klucel (hydroxypropylcellulose) (HPC) 95 % of control | [6] 100 % of control | dose: 50.0 mg/kg/injection, schedule: Q01DX009 (ip), vehicle: Klucel (hydroxypropylcellulose) (HPC) 103 % of control | dose: 50.0 mg/kg/injection, schedule: Q04DX003 (ip), vehicle: Klucel (hydroxypropylcellulose) (HPC) 95 % of control | [7] 101 % of control

CCC(NC(=O)OCc1ccccc1)C(=O)O (centres undefined)
inactive: [8] 98 % of control | [9] 93 % of control | [10] 97 % of control

COC(=O)C1=C(NC(=O)Nc2ccc(Cl)cc2)OC(C)(C)C1c1ccc(Cl)cc1 (centres undefined)
inactive: dose: 12.5 mg/kg/injection, schedule: Q01DX001 (ip), vehicle: saline 92 % of control | dose: 12.5 mg/kg/injection, schedule: Q01DX009 (ip), vehicle: saline 86 % of control | dose: 12.5 mg/kg/injection, schedule: Q04DX003 (ip), vehicle: acetone 93 % of control | dose: 25.0 mg/kg/injection, schedule: Q01DX001 (ip), vehicle: saline 87 % of control | [11] 90 % of control | dose: 25.0 mg/kg/injection, schedule: Q04DX003 (ip), vehicle: acetone 100 % of control | [2] 86 % of control | dose: 50.0 mg/kg/injection, schedule: Q04DX003 (ip), vehicle: acetone 96 % of control

c1ccc2c3c([nH]c2c1)C1CC2CC(C1)CC3C2
inactive: dose: 100.0 mg/kg/injection, schedule: Q04DX003 (ip), vehicle: alcohol 105 % of control | dose: 200.0 mg/kg/injection, schedule: Q04DX003 (ip), vehicle: alcohol 96 % of control | dose: 400.0 mg/kg/injection, schedule: Q04DX003 (ip), vehicle: alcohol 96 % of control

COC(=O)C1=C(C(=O)OC)C(C(=O)OC)N2C=CC=CC2=C1C(=O)OC (centres undefined)
inactive: [6] 94 % of control | dose: 100.0 mg/kg/injection, schedule: Q01DX001 (ip), vehicle: carboxymethylcellulose (CMC) 89 % of control | dose: 200.0 mg/kg/injection, schedule: Q01DX001 (ip), vehicle: carboxymethylcellulose (CMC) 94 % of control

O=c1c[n+](Cc2ccc(Cl)cc2)[nH]o1
inactive: dose: 100.0 mg/kg/injection, schedule: Q01DX Z (ip), vehicle: saline 100 % of control | dose: 200.0 mg/kg/injection, schedule: Q01DX Z (ip), vehicle: saline 100 % of control

CN1CN(C)CN(C)C1
inactive: [11] 105 % of control | dose: 50.0 mg/kg/injection, schedule: Q01DX009 (ip), vehicle: saline 108 % of control | dose: 50.0 mg/kg/injection, schedule: Q04DX003 (ip), vehicle: saline 102 % of control | [3] 101 % of control | dose: 100.0 mg/kg/injection, schedule: Q01DX009 (ip), vehicle: saline 110 % of control | [1] 102 % of control and 107 % of control | [4] 92 % of control | [5] 97 % of control

CC(C)(C)Nc1ccc(C#N)cc1
inactive: dose: 12.5 mg/kg/injection, schedule: Q04DX002 (ip), vehicle: Klucel (hydroxypropylcellulose) (HPC) 97 % of control | dose: 25.0 mg/kg/injection, schedule: Q04DX002 (ip), vehicle: Klucel (hydroxypropylcellulose) (HPC) 94 % of control | dose: 50.0 mg/kg/injection, schedule: Q04DX002 (ip), vehicle: Klucel (hydroxypropylcellulose) (HPC) 87 % of control

CCOCC(O)CO (centres undefined)
inactive: [3] 110 % of control | [4] 98 % of control | [5] 96 % of control

Cc1ccc([N+](=O)[O-])cc1NC(=O)SCCSC(=O)Nc1cc([N+](=O)[O-])ccc1C
inactive: [7] 90 % of control | dose: 200.0 mg/kg/injection, schedule: Q04DX003 (ip), vehicle: Klucel (hydroxypropylcellulose) (HPC) 92 % of control | dose: 400.0 mg/kg/injection, schedule: Q04DX003 (ip), vehicle: Klucel (hydroxypropylcellulose) (HPC) 92 % of control

c1ccc(NC2=NCCO2)cc1
inactive: dose: 25.0 mg/kg/injection, schedule: Q04DX002 (ip), vehicle: saline with Tween-80 107 % of control | dose: 50.0 mg/kg/injection, schedule: Q04DX002 (ip), vehicle: saline with Tween-80 90 % of control | [12] 96 % of control

CN1CC(=O)N2c3ccccc3CC2C1=O (centres undefined)
inactive: [12] 102 % of control | dose: 200.0 mg/kg/injection, schedule: Q04DX002 (ip), vehicle: saline with Tween-80 113 % of control | dose: 400.0 mg/kg/injection, schedule: Q04DX002 (ip), vehicle: saline with Tween-80 102 % of control

O=C(CCN1CC1)OCC1CC1
inactive: dose: 2.5 mg/kg/injection, schedule: Q01DX009 (ip), vehicle: Klucel (hydroxypropylcellulose) (HPC) 103 % of control | dose: 5.0 mg/kg/injection, schedule: Q01DX009 (ip), vehicle: Klucel (hydroxypropylcellulose) (HPC) 97 % of control | dose: 10.0 mg/kg/injection, schedule: Q01DX009 (ip), vehicle: Klucel (hydroxypropylcellulose) (HPC) 105 % of control | dose: 20.0 mg/kg/injection, schedule: Q01DX009 (ip), vehicle: Klucel (hydroxypropylcellulose) (HPC) 114 % of control | dose: 20.0 mg/kg/injection, schedule: Q04DX003 (ip), vehicle: Klucel (hydroxypropylcellulose) (HPC) 98 % of control | dose: 40.0 mg/kg/injection, schedule: Q04DX003 (ip), vehicle: Klucel (hydroxypropylcellulose) (HPC) 101 % of control | dose: 80.0 mg/kg/injection, schedule: Q04DX003 (ip), vehicle: Klucel (hydroxypropylcellulose) (HPC) 97 % of control

C1COC(CNCC2CCCO2)C1 (centres undefined)
inactive: [2] 109 % of control | [3] 101 % of control | [4] 103 % of control

COc1cc(OC)cc(C2N(Cc3ccc(OC)c(OC)c3)CCN2Cc2ccc(OC)c(OC)c2)c1
inactive: dose: 100.0 mg/kg/injection, schedule: Q01DX009 (ip), vehicle: saline with Tween-80 100 % of control | [8] 104 % of control | dose: 200.0 mg/kg/injection, schedule: Q01DX009 (ip), vehicle: saline with Tween-80 108 % of control | [9] 100 % of control | dose: 400.0 mg/kg/injection, schedule: Q01DX009 (ip), vehicle: saline with Tween-80 101 % of control | [10] 98 % of control

CN1CCN(Cc2c(O)ccc3c2OC(C)(C)C2=C3CCCC2)CC1
inactive: [3] 89 % of control | [4] 98 % of control
